For 19 molecules, EC50 results are on record in patent US8574563B2 (Bristol-Myers Squibb Company, priority 2006, dated 2013).

The first assay concerns HCV 1b-377-neo replicon cells. Briefly: HCV replicon assay, HCV 1b-377-neo replicon cells (1b FRET). In kind it is cell-based, Hepatitis C virus genotype 1b. The settings on record: HCV 1b-377-neo replicon cells; HCV 1b genotype; read-out: EC50 range against HCV 1b (Table 2, Range). A digest of the protocol:
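FRET-based replicon assay in HCV 1b-377-neo cells, including a comparison line carrying the NS5A Y2065H mutation that confers resistance to a reference compound.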
On the technique in general: A replicon is a self-replicating genome or part of one, used to study replication in cells.
Regarding `COC(=O)N[C@@H](C(=O)N1CCC[C@H]1c1ncc(-c2ccc(-c3ccc(-c4cnc([C@@H]5CCCN5C(=O)Cc5ccccn5)[nH]4)cc3)cc2)[nH]1)c1ccccc1` [Example 46, methyl ((1R)-2-oxo-1-phenyl-2-((2S)-2-(5-(4′-(2-((2S)-1-(2-pyridinylacetyl)-2-pyrrolidinyl)-1H-imidazol-5-yl)-4-biphenylyl)-1H-imidazol-2-yl)-1-pyrrolidinyl)ethyl)carbamate], the EC50 fell in the range of 0.001 to 0.999 nM.

As to `COC(=O)N[C@@H](C(=O)N1CCC[C@H]1c1ncc(-c2ccc(-c3ccc(-c4cnc([C@@H]5CCCN5C(=O)c5cnco5)[nH]4)cc3)cc2)[nH]1)c1ccccc1` [Example 72, methyl ((1R)-2-((2S)-2-(5-(4′-(2-((2S)-1-(1,3-oxazol-5-ylcarbonyl)-2-pyrrolidinyl)-1H-imidazol-5-yl)-4-biphenylyl)-1H-imidazol-2-yl)-1-pyrrolidinyl)-2-oxo-1-phenylethy)carbamate], the EC50 is 1 to 99 nM.

Still in this assay, the particulars now being: Hepatitis C virus, HCV 1b-377-neo replicon cells; HCV 1b genotype; read-out: EC50 range against HCV 1b (Table 2, Range).
Regarding `COC(=O)N[C@@H](Cc1c[nH]nn1)C(=O)N1CCC[C@H]1c1ncc(-c2ccc(-c3ccc(-c4cnc([C@@H]5CCCN5C(=O)[C@H](Cc5c[nH]nn5)NC(=O)OC)[nH]4)cc3)cc2)[nH]1` [cj-125, methyl ((1S)-2-((2S)-2-(5-(4′-(2-((2S)-1-((2S)-2-((methoxycarbonyl)amino)-3-(1H-1,2,3-triazol-4-yl)propanoyl)-2-pyrrolidinyl)-1H-imidazol-5-yl)-4-biphenylyl)-1H-imidazol-2-yl)-1-pyrrolidinyl)-2-oxo-1-(1H-1,2,3-triazol-4-ylmethyl)ethyl)carbamate], the EC50 is 1 to 99 nM.

For `COC(=O)N[C@@H](C(=O)N1CCC[C@H]1c1ncc(-c2cnc(-c3ncc(-c4cnc([C@@H]5CCCN5C(=O)[C@H](NC(=O)OC)c5ccccc5)[nH]4)cn3)nc2)[nH]1)c1ccccc1` [Example 153c-4, dimethyl (2,2′-bipyrimidine-5,5′-diylbis(1H-imidazole-5,2-diyl(2S)-2,1-pyrrolidinediyl((1R)-2-oxo-1-phenyl-2,1-ethanediyl)))biscarbamate], the EC50 was 1000 to 10000 nM.

With `CN(C)[C@@H](C(=O)N1CCC[C@H]1c1ncc(-c2ccc(-c3ccc(-c4cnc([C@@H]5CCCN5C(=O)[C@@H](c5ccccc5)N5CCC(C)(O)CC5)[nH]4)cc3)cc2)[nH]1)c1ccccc1` [Example 94-3, 1-((1R)-2-((2S)-2-(5-(4′-(2-((2S)-1-((2R)-2-(dimethylamino)-2-phenylacetyl)-2-pyrrolidinyl)-1H-imidazol-5-yl)-4-biphenylyl)-1H-imidazol-2-yl)-1-pyrrolidinyl)-2-oxo-1-phenylethyl)-4-methyl-4-piperidinol], the EC50 was 0.001 to 0.999 nM.

As for `CCN(CC)[C@@H](C(=O)N1CCC[C@H]1c1ncc(-c2ccc(-c3ccc(-c4cnc([C@@H]5CCCN5C(=O)[C@@H](NC5=NCCN5)C(C)C)[nH]4)cc3)cc2)[nH]1)c1ccccc1` [cj-11g, N-((1S)-1-(((2S)-2-(5-(4′-(2-((2S)-1-((2R)-2-(diethylamino)-2-phenylacetyl)-2-pyrrolidinyl)-1H-imidazol-5-yl)-4-biphenylyl)-1H-imidazol-2-yl)-1-pyrrolidinyl)carbonyl)-2-methylpropyl)-4,5-dihydro-1H-imidazol-2-amine], the EC50 lay within 1 to 99 nM.

Regarding `COC(=O)N[C@@H]1CC[C@H](C(=O)N2CCC[C@H]2c2ncc(-c3ccc(-c4ccc(-c5cnc([C@@H]6CCCN6C(=O)[C@@H](NC(=O)OC)C(C)C)[nH]5)cc4)cc3)[nH]2)C1` [cj-62, methyl ((1S)-1-(((2S)-2-(5-(4′-(2-((2S)-1-(((1S,3R)-3-((methoxycarbonyl)amino)cyclopentyl)carbonyl)-2-pyrrolidinyl)-1H-imidazol-5-yl)-4-biphenylyl)-1H-imidazol-2-yl)-1-pyrrolidinyl)carbonyl)-2-methylpropyl)carbamate], the EC50 fell in the range of 0.001 to 0.999 nM.

`CCN(CC)[C@@H](C(=O)N1CCC[C@H]1c1ncc(-c2ccc(-c3ccc(-c4cnc([C@@H]5CCCN5C(=O)[C@@H](NC(=O)OC)C5CC5)[nH]4)c(F)c3)cc2)[nH]1)c1ccccc1` [Example D49, methyl ((1S)-1-cyclopropyl-2-((2S)-2-(5-(4′-(2-((2S)-1-((2R)-2-(diethylamino)-2-phenylacetyl)-2-pyrrolidinyl)-1H-imidazol-5-yl)-3-fluoro-4-biphenylyl)-1H-imidazol-2-yl)-1-pyrrolidinyl)-2-oxoethyl)carbamate]: the concentration for a half-maximal effect (EC50) was 0.001 to 0.999 nM.

As for `Cc1cc(-c2cnc([C@@H]3CCCN3C(=O)[C@H](O)c3ccccc3)[nH]2)ccc1-c1ccc(-c2cnc([C@@H]3CCCN3C(=O)[C@H](O)c3ccccc3)[nH]2)cc1` [Example 125, (1R,1′R)-2,2′-((2-methyl-4,4′-biphenyldiyl)bis(1H-imidazole-5,2-diyl(2S)-2,1-pyrrolidinediyl))bis(2-oxo-1-phenylethanol)], the EC50 is 0.001 to 0.999 nM.

`COC(=O)N[C@@H](CC(C)C)C(=O)N1C[C@H](F)C[C@H]1c1ncc(-c2ccc(-c3ccc(-c4cnc([C@@H]5C[C@@H](F)CN5C(=O)[C@H](CC(C)C)NC(=O)OC)[nH]4)cc3)cc2)[nH]1` [JG-12, methyl ((1S)-1-(((2S,4R)-4-fluoro-2-(5-(4′-(2-((2S,4R)-4-fluoro-1-((2S)-2-((methoxycarbonyl)amino)-4-methylpentanoyl)-2-pyrrolidinyl)-1H-imidazol-5-yl)-4-biphenylyl)-1H-imidazol-2-yl)-1-pyrrolidinyl)carbonyl)-3-methylbutyl)carbamate]: the EC50 was in the range of 0.001 to 0.999 nM.

As to `Cc1nc([C@@H]2CCCN2C(=O)[C@@H](c2ccccc2)N2CCCCC2)[nH]c1-c1ccc(-c2ccc(-c3nc([C@@H]4CCCN4C(=O)[C@@H](c4ccccc4)N4CCCCC4)[nH]c3C)cc2)cc1` [Example E5i, 1,1′-(4,4′-biphenyldiylbis((4-methyl-1H-imidazole-5,2-diyl)(2S)-2,1-pyrrolidinediyl((1R)-2-oxo-1-phenyl-2,1-ethanediyl)))dipiperidine], the EC50 lay in the range of 0.001 to 0.999 nM.

In the case of `COc1ccc(-c2ccc(-c3cnc([C@@H]4CCCN4C(=O)[C@@H](c4ccccc4)N(C)C)[nH]3)cc2)cc1-c1c[nH]c([C@@H]2CCCN2C(=O)[C@@H](c2ccccc2)N(C)C)n1` [Example D33, (1R,1′R)-2,2′-((4-methoxy-3,4′-biphenyldiyl)bis(1H-imidazole-5,2-diyl(2S)-2,1-pyrrolidinediyl))bis (N,N-dimethyl-2-oxo-1-phenylethanamine)], the EC50 fell in the range of 0.001 to 0.999 nM.

As for `C[C@@H](c1ncc(-c2ccc(-c3ncc(-c4cnc([C@@H]5CCCN5C(=O)[C@@H](c5ccccc5)N5CCCCC5)[nH]4)cn3)cc2)[nH]1)N(C)C(=O)[C@@H](c1ccccc1)N1CCCCC1` [Example 152j-6, (2R)-N-methyl-2-phenyl-N-((1S)-1-(4-(4-(5-(2-((2S)-1-((2R)-2-phenyl-2-(1-piperidinyl)acetyl)-2-pyrrolidinyl)-1H-imidazol-5-yl)-2-pyrimidinyl)phenyl)-1H-imidazol-2-yl)ethyl)-2-(1-piperidinyl)acetamide], the EC50 lay in the range of 0.001 to 0.999 nM.

As for `COC(=O)N[C@@H](C(=O)N1CCC[C@H]1c1ncc(-c2ccc(-c3ccc(-c4cnc([C@@H]5CCCN5C(=O)Cc5ccccc5)[nH]4)cc3)cc2)[nH]1)c1ccccc1` [Example 28, methyl ((1R)-2-oxo-1-phenyl-2-((2S)-2-(5-(4′-(2-((2S)-1-(phenylacetyl)-2-pyrrolidinyl)-1H-imidazol-5-yl)-4-biphenylyl)-1H-imidazol-2-yl)-1-pyrrolidinyl)ethyl)carbamate], the 50% effective concentration (EC50) lay within 1 to 99 nM.

Regarding `CCN(CC)[C@@H](C(=O)N1CCC[C@H]1c1ncc(-c2ccc(-c3ccc(-c4cnc([C@@H]5CCCN5C(=O)[C@H](NC5=NCCN5)C(C)C)[nH]4)cc3)cc2)[nH]1)c1ccccc1` [cj-11p, N-((1R)-1-(((2S)-2-(5-(4′-(2-((2S)-1-((2R)-2-(diethylamino)-2-phenylacetyl)-2-pyrrolidinyl)-1H-imidazol-5-yl)-4-biphenylyl)-1H-imidazol-2-yl)-1-pyrrolidinyl)carbonyl)-2-methylpropyl)-4,5-dihydro-1H-imidazol-2-amine], the EC50 lay within 0.001 to 0.999 nM.

As for `COC(=O)N[C@@H](C(=O)N1CCC[C@H]1c1ncc(-c2ccc(-c3ccc(-c4cnc([C@@H]5CCCN5C(=O)Cc5nnn[nH]5)[nH]4)cc3)cc2)[nH]1)c1ccccc1` [Example 65, methyl ((1R)-2-oxo-1-phenyl-2-((2S)-2-(5-(4′-(2-((2S)-1-(1H-tetrazol-5-ylacetyl)-2-pyrrolidinyl)-1H-imidazol-5-yl)-4-biphenylyl)-1H-imidazol-2-yl)-1-pyrrolidinyl)ethyl)carbamate], the 50% effective concentration (EC50) is 1 to 99 nM.

In the case of `COC(=O)N[C@@H]1CCCC[C@@H]1C(=O)N1CCC[C@H]1c1ncc(-c2ccc(-c3ccc(-c4cnc([C@@H]5CCCN5C(=O)[C@H]5CCCC[C@H]5NC(=O)OC)[nH]4)cc3)cc2)[nH]1` [cj-141, dimethyl (4,4′-biphenyldiylbis(1H-imidazole-5,2-diyl(2S)-2,1-pyrrolidinediylcarbonyl(1R,2S)-2,1-cyclohexanediyl))biscarbamate], the EC50 lay in the range of 1000 to 10000 nM.

For `COC(=O)N[C@@H](C)C(=O)N1CCC[C@H]1c1ncc(-c2ccc(-c3ccc(-c4cnc([C@@H]5CCCN5C(=O)[C@H](Nc5ncccn5)C(C)C)[nH]4)cc3)cc2)[nH]1` [cj-11j, methyl ((1S)-1-methyl-2-oxo-2-((2S)-2-(5-(4′-(2-((2S)-1-(N-2-pyrimidinyl-D-valyl)-2-pyrrolidinyl)-1H-imidazol-5-yl)-4-biphenylyl)-1H-imidazol-2-yl)-1-pyrrolidinyl)ethyl)carbamate], the EC50 is 0.001 to 0.999 nM.

On to `COC(=O)N[C@@H](Cc1cn(C)cn1)C(=O)N1CCC[C@H]1c1ncc(-c2ccc(-c3ccc(-c4cnc([C@@H]5CCCN5C(=O)[C@@H](NC(=O)OC)C(C)C)[nH]4)cc3)cc2)[nH]1` [cj-42, methyl ((1S)-1-(((2S)-2-(5-(4′-(2-((2S)-1-((2S)-2-((methoxycarbonyl)amino)-3-(1-methyl-1H-imidazol-4-yl)propanoyl)-2-pyrrolidinyl)-1H-imidazol-5-yl)-4-biphenylyl)-1H-imidazol-2-yl)-1-pyrrolidinyl)carbonyl)-2-methylpropyl)carbamate], for which the half-maximal effective concentration (EC50) fell in the range of 0.001 to 0.999 nM.

As a reminder, the EC50 is the concentration that produces a half-maximal response.
